# Measured values: US8410112B2, “Compounds useful as inhibitors of ATR kinase” (Vertex Pharmaceuticals Incorporated, priority 2008, dated 2013)
# pKi: −log10 of the molar value.
# Target: T1, full-length ATR (Homo sapiens, UniProt Q13535)
# T1 construct: in the presence of 5 nM full-length ATR
# Assay: ATR Inhibition Assay (radioactive-phosphate incorporation)
# Format: biochemical
# Settings: Ki(app); 5 nM full-length ATR, 10 μM ATP, 800 μM target peptide, 25° C.
# Procedure, shortened: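 Buffer was 50 mM Tris/HCl pH 7.5, 10 mM MgCl2, 1 mM DTT, with 5 nM enzyme, 10 μM [γ-33P]ATP and 800 μM target peptide at 25 °C. Compound was pre-incubated 10 min before ATP start, and the reaction was stopped after 24 h. Phosphocellulose filter capture; Ki(app) came from non-linear regression of background-corrected initial rates.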
# T1 sequence (Q13535 whole entry): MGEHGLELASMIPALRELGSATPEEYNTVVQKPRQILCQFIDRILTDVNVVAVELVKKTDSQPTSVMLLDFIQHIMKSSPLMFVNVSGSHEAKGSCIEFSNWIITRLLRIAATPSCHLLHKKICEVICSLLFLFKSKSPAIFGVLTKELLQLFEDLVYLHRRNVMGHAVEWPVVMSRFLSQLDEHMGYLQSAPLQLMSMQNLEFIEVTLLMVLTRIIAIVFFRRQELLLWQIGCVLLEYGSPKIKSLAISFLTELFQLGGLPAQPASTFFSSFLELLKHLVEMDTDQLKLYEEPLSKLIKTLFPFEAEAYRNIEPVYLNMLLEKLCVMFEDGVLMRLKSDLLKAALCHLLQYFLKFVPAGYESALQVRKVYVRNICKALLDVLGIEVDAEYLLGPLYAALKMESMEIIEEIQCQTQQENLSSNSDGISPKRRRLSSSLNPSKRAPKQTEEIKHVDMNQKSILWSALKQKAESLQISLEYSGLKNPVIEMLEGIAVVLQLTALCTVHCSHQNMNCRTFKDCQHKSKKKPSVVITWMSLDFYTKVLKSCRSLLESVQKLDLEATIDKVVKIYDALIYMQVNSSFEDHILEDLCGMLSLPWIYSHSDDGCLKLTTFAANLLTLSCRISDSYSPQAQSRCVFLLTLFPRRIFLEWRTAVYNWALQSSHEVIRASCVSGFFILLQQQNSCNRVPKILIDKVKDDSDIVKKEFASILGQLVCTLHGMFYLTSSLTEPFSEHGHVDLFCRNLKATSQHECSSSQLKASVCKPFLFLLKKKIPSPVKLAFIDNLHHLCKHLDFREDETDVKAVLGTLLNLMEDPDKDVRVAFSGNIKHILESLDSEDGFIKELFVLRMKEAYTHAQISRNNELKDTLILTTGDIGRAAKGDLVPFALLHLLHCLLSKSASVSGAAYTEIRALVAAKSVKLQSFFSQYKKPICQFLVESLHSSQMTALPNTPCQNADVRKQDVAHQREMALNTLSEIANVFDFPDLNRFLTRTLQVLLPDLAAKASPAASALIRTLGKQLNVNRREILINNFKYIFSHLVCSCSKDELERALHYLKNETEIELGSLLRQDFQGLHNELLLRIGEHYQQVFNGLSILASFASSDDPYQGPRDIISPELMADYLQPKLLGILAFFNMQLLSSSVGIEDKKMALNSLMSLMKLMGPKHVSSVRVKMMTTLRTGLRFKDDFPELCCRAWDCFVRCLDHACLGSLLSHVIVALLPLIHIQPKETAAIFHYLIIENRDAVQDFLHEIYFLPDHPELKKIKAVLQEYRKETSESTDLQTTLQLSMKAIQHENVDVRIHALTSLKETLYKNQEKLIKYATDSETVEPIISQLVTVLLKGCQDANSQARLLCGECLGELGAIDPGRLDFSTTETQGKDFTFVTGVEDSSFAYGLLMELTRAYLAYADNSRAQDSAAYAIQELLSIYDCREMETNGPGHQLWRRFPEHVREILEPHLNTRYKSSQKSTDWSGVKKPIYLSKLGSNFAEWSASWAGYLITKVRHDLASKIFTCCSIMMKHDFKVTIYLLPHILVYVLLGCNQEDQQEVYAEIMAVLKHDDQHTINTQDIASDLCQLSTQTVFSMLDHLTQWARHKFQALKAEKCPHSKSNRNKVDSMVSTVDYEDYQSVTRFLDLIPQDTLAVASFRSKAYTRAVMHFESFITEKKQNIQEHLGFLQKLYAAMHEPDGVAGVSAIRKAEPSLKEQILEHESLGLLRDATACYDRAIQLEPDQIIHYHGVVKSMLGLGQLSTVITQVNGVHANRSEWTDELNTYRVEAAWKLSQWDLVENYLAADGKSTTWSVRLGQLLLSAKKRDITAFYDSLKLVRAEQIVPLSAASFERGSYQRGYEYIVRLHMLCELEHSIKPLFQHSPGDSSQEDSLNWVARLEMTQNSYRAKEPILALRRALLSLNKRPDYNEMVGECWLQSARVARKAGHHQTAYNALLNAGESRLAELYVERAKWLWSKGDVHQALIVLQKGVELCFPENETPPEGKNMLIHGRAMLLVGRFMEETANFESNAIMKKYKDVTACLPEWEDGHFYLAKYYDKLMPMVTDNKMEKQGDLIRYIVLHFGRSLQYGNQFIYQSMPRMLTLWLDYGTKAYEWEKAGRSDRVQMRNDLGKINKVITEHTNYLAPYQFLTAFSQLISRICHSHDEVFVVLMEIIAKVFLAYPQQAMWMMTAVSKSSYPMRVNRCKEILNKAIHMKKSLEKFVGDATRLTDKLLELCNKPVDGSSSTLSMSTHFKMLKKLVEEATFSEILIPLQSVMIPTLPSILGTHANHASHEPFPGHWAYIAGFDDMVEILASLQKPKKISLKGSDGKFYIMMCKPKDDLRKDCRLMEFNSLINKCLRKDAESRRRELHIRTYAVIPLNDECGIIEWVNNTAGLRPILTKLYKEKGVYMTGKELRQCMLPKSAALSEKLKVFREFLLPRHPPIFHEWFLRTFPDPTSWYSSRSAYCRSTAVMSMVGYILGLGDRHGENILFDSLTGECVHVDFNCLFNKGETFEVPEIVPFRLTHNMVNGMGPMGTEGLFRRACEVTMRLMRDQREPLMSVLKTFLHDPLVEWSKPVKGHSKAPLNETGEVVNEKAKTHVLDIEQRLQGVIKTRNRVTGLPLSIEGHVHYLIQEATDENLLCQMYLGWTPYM
row,pKi,SMILES
1,6.00 to 7.00,"Nc1ncc(N2CC[C@H](NC(=O)c3ccccn3)C2)nc1-c1nc2ccccc2[nH]1 [Compound I-193, (S)-N-(1-(5-amino-6-(1H-benzo[d]imidazol-2-yl)pyrazin-2-yl)pyrrolidin-3-yl)pyridine-2-carboxamide]"
2,5.00 to 6.00,"Cc1ccc2nc(-c3nc(N4CCC(C#N)CC4)cnc3N)[nH]c2c1 [Compound I-34, 1-(5-amino-6-(6-methyl-1H-benzo[d]imidazol-2-yl)pyrazin-2-yl)piperidine-4-carbonitrile]"
3,5.00 to 6.00,"Nc1ncc(N2CCNCC2)nc1C(=O)Nc1ccccn1 [Compound I-42, 3-amino-6-(piperazin-1-yl)-N-(pyridin-2-yl)pyrazine-2-carboxamide]"
4,6.00 to 7.00,"CCS(=O)(=O)N1CCN(c2cnc(N)c(-c3nnc(-c4ccco4)o3)n2)CC1 [Compound I-297, 5-(4-ethylsulfonylpiperazin-1-yl)-3-[5-(2-furyl)-1,3,4-oxadiazol-2-yl]pyrazin-2-amine]"
5,5.00 to 6.00,"CC(C)(C)C(=O)N1CCN(c2cnc(N)c(C(=O)Nc3ccccn3)n2)CC1 [Compound I-209, 3-amino-6-(4-(2,2-dimethylpropanoyl)piperazin-1-yl)-N-(pyridin-2-yl)pyrazine-2-carboxamide]"
6,> 7.00,"Nc1ncc(C2=CCN(C(=O)C3CCC3)CC2)nc1-c1nc2ccccc2[nH]1 [Compound I-200, (4-(5-amino-6-(1H-benzo[d]imidazol-2-yl)pyrazin-2-yl)-5,6-dihydropyridin-1(2H)-yl)(cyclobutyl)methanone]"
7,5.00 to 6.00,"COCCOC(=O)N1CCN(c2cnc(N)c(-c3nc4ccccc4[nH]3)n2)CC1 [Compound I-266, 2-methoxyethyl 4-(5-amino-6-(1H-benzo[d]imidazol-2-yl)pyrazin-2-yl)piperazine-1-carboxylate]"
8,> 7.00,"COCCOC(=O)N1CC=C(c2cnc(N)c(-c3nnc(-c4ccccc4)o3)n2)CC1 [Compound I-224, 2-methoxyethyl 4-(5-amino-6-(5-phenyl-1,3,4-oxadiazol-2-yl)pyrazin-2-yl)-5,6-dihydropyridine-1(2H)-carboxylate]"
9,5.00 to 6.00,"CC(=O)N[C@@H]1CCN(c2cnc(N)c(-c3nc4ccc(C)cc4[nH]3)n2)C1 [Compound I-9, (R)-N-(1-(5-amino-6-(6-methyl-1H-benzo[d]imidazol-2-yl)pyrazin-2-yl)pyrrolidin-3-yl)ethanamide]"
10,> 7.00,"CCNCc1ccc(-c2nnc(-c3nc(N4CCCC4)cnc3N)o2)cc1 [Compound I-343, 3-[5-[4-(Aethylaminomethyl)phenyl]-1,3,4-oxadiazol-2-yl]-5-pyrrolidin-1-yl-pyrazin-2-amine]"
11,6.00 to 7.00,"Nc1ncc(N2CCN(C(=O)C3CCC3)CC2)nc1C(=O)Nc1ccccn1 [Compound I-145, 3-amino-6-(4-(cyclobutanecarbonyl)piperazin-1-yl)-N-(pyridin-2-yl)pyrazine-2-carboxamide]"
12,6.00 to 7.00,"CCS(=O)(=O)N1CCN(c2cnc(N)c(-c3cn(-c4ccc(N)cc4)nn3)n2)CC1 [Compound I-160, 3-(1-(4-aminophenyl)-1H-1,2,3-triazol-4-yl)-5-(4-(ethylsulfonyl)piperazin-1-yl)pyrazin-2-amine]"
13,6.00 to 7.00,"CC(C)S(=O)(=O)N1CCN(c2cnc(N)c(-c3nc4ccccc4[nH]3)n2)CC1 [Compound I-97, 3-(1H-benzo[d]imidazol-2-yl)-5-(4-(isopropylsulfonyl)piperazin-1-yl)pyrazin-2-amine]"
14,5.00 to 6.00,"CC(=O)C1(c2ccccc2)CCN(c2cnc(N)c(-c3nc4ccc(C)cc4[nH]3)n2)CC1 [Compound I-44, 1-(1-(5-amino-6-(6-methyl-1H-benzo[d]imidazol-2-yl)pyrazin-2-yl)-4-phenylpiperidin-4-yl)ethanone]"
15,6.00 to 7.00,"CC(C)(C)OC(=O)N1CC=C(c2cnc(N)c(-c3noc(-c4ccccc4)n3)n2)CC1 [Compound I-163, Tert-butyl 4-(5-amino-6-(5-phenyl-1,2,4-oxadiazol-3-yl)pyrazin-2-yl)-5,6-dihydropyridine-1(2H)-carboxylate]"
16,6.00 to 7.00,"CS(=O)(=O)N1CCN(c2cnc(N)c(C(=O)Nc3ccccn3)n2)CC1 [Compound I-219, 3-amino-6-(4-(methylsulfonyl)piperazin-1-yl)-N-(pyridin-2-yl)pyrazine-2-carboxamide]"
17,6.00 to 7.00,"Nc1ncc(N2CCN(C(=O)C3CCC3)CC2)nc1-c1nnc(-c2ccccc2)o1 [Compound I-189, (4-(5-amino-6-(5-phenyl-1,3,4-oxadiazol-2-yl)pyrazin-2-yl)piperazin-1-yl)(cyclobutyl)methanone]"
18,6.00 to 7.00,"Nc1ncc(N2CCN(C(=O)c3c(F)cccc3F)CC2)nc1C(=O)Nc1ccccn1 [Compound I-149, 3-amino-6-(4-(2,6-difluorophenylcarbonyl)piperazin-1-yl)-N-(pyridin-2-yl)pyrazine-2-carboxamide]"
19,6.00 to 7.00,"CCS(=O)(=O)N1CCN(c2cnc(N)c(C(=O)Nc3ccccc3)n2)CC1 [Compound I-20, 3-amino-6-(4-(ethylsulfonyl)piperazin-1-yl)-N-phenylpyrazine-2-carboxamide]"
20,> 7.00,CNCc1ccc(-c2nnc(-c3nc(N4C[C@H]5CCC(OS(C)(=O)=O)[C@H]5C4)cnc3N)o2)cc1 (stereo partly shown) [Compound I-320]
21,6.00 to 7.00,"CCS(=O)(=O)N1CCN(c2cnc(N)c(-c3cc(-c4ccccc4)ncn3)n2)CC1 [Compound I-74, 5-(4-(ethylsulfonyl)piperazin-1-yl)-3-(6-phenylpyrimidin-4-yl)pyrazin-2-amine]"
22,6.00 to 7.00,"Cc1ccc2nc(-c3nc(C4=CCC5(CC4)OCCO5)cnc3N)[nH]c2c1 [Compound I-22, 3-(6-methyl-1H-benzo[d]imidazol-2-yl)-5-(1,4-dioxaspiro[4.5]dec-7-en-8-yl)pyrazin-2-amine]"
23,6.00 to 7.00,"CCS(=O)(=O)N1CCN(c2cnc(N)c(-c3ncc(-c4ccccc4)o3)n2)CC1 [Compound I-36, 5-(4-(ethylsulfonyl)piperazin-1-yl)-3-(5-phenyloxazol-2-yl)pyrazin-2-amine]"
24,5.00 to 6.00,"CN(C)CC(=O)N[C@H]1CCN(c2cnc(N)c(-c3nc4ccccc4[nH]3)n2)C1 [Compound I-184, (S)-N-(1-(5-amino-6-(1H-benzo[d]imidazol-2-yl)pyrazin-2-yl)pyrrolidin-3-yl)-2-(dimethylamino)ethanamide]"
25,6.00 to 7.00,"Nc1ncc(N2C[C@@H]3CCC(=O)[C@@H]3C2)nc1-c1nnc(-c2ccccc2)o1 [Compound I-319, (3aS,6aR)-2-(5-Amino-6-(5-phenyl-1,3,4-oxadiazol-2-yl)pyrazin-2-yl)hexahydrocyclopenta[c]pyrrol-4(5H)-one]"
26,5.00 to 6.00,"Cc1ccc2nc(-c3nc(N4CCC5(CC4)OCCO5)cnc3N)[nH]c2c1 [Compound I-33, 3-(6-methyl-1H-benzo[d]imidazol-2-yl)-5-(1,4-dioxa-8-azaspiro[4.5]decan-8-yl)pyrazin-2-amine]"
27,6.00 to 7.00,"Nc1ncc(N2CCN(S(=O)(=O)c3cccs3)CC2)nc1C(=O)Nc1ccccn1 [Compound I-116, 3-amino-N-(pyridin-2-yl)-6-(4-(thiophen-2-ylsulfonyl)piperazin-1-yl)pyrazine-2-carboxamide]"
28,6.00 to 7.00,"CCS(=O)(=O)N1CCN(c2cnc(N)c(-c3nc(-c4ccccc4)no3)n2)CC1 [Compound I-19, 5-(4-(ethylsulfonyl)piperazin-1-yl)-3-(3-phenyl-1,2,4-oxadiazol-5-yl)pyrazin-2-amine]"
